melting point [°C] | Structure (SMILES)
148 to 150 | Cc1cccc(-c2cn(C)cc(-c3cccc(C)c3)c2=O)c1
96 to 97 | CS(=O)(=O)OCN1C=NN(c2c(Cl)cc(C(F)(F)F)cc2Cl)C1
198 to 199 | c1ccc(-c2nn3cnnc3c3ccccc23)cc1
129 to 131 | CCN(CC)Cc1cc(C(N)=O)ccc1N
257 to 258 | CNC(=O)Nc1ccc2c(c1)C(=O)NC(=O)C2(C)C
169 to 170 | O=C1CN(c2cccc(CF)c2)NC(=O)N1
209 to 210 | CC1(C)SCNC1C(=O)O (configuration not stated)
119 to 120 | CCOC(=O)c1cccc(Cn2cnc3cnccc32)c1
58 to 64 | Brc1ccc2c(c1)CCC=C2n1ccnc1
120 to 123 | CN(C)CCCOc1ccc(-c2nnc(CSCCOc3ccccc3)n2-c2ccccc2)cc1
195 to 197 | COc1ccc(N2CCOCC2)c2sc(-c3nc4c([nH]3)CCN(C(C)=O)CC4)nc12
192 to 193 | COc1ccc(COc2ccc(C(=O)Nc3ccc4cc(CN5CCCC5)cnc4c3C)cc2)cc1
162 to 163 | Cc1nnc(-c2cc3c(-c4ccccc4Cl)coc3cn2)o1
67 to 71 | CC(=O)CC(=O)OCCCN1C(=O)c2ccccc2C1=O
176 | O=C1c2ccccc2CN1c1ccc(CCN2CCN(c3nsc4ccccc34)CC2)cc1
95 to 96 | Brc1cnc(Br)c2ccccc12
87 to 90 | O=C(CCN1CCC(N2Cc3ccccc3C2=O)CC1)c1ccccc1
125 to 128 | COc1cccc([C@H]2O[C@H](CC(=O)NCc3ccoc3C(=O)O)C(=O)N(CC(C)(C)CO)c3ccc(Cl)cc32)c1OC
128 to 130 | O=C1C(c2ccc(O)cc2)=C(c2ccccc2)c2cc(O)cc(O)c21
146 to 152 | Cc1cc2cc(NC(=O)NC34CC5CC(CC(C5)C3)C4)ccc2[nH]1
157 to 162 | N#CCc1ccc(NC(=O)OCc2cccnc2)cc1
154 to 155 | N#CCC1(C#N)CCC(=O)CC1
248 to 250 | CCCn1c(=O)c2[nH]c(C3CCCC3)nc2n(CCc2ccc(N)cc2)c1=O

melting point [°C] | Structure (SMILES)
157 to 160 | Nc1ccc(Sc2cc(Cl)cc(Cl)c2)c(Cl)c1
89 to 90 | C=CCNc1nc(NC(C)(C)C)c2scc(C)c2n1
251 to 252 | O=C1NC(Cc2ccccc2)C(=O)N/C1=C\c1ccc(O)cn1 (configuration not stated)
155 to 158 | CCC(CC)NC(=O)C[C@@H](C(=O)NC[C@@H](O)[C@@H](N)Cc1ccccc1)C(C)(C)C
149 to 151 | COc1ccc(Cc2nc(NCCO)c3c(C)c(C#N)sc3n2)cc1OC
212 to 217 | CCn1cc(C(=O)O)c(=O)c2cc(F)c(N3CCC(C(C)N)C3)c(F)c21 (configuration not stated)
104 to 105 | O=[N+]([O-])c1ccccc1NCc1cc(F)cc(F)c1
121 to 122 | O=C(NO)c1ccc(CNC(=O)c2[nH]c(-c3ccc(O)cc3)cc2-c2ccsc2)cc1
128 to 133 | Clc1cccc(-c2nc(-c3ccccn3)no2)c1Cl
176 to 178 | CSc1ccc(C(N)=S)cc1
62.3 to 63.1 | CCCCCCCc1ccc2cc(-c3ncc(CC)cn3)ccc2c1
129 to 132 | Cn1nc(-c2ccc(F)cc2)c(-c2ccncc2)c1CCCc1ccc([N+](=O)[O-])cc1
107 | CC(=O)CC(=O)Nc1cccc(NC(C)=O)c1
162 | Cc1ccc(OC2SCC(O)C(O)C2O)c(-c2ccoc2)n1 (configuration not stated)
93 to 94 | CC(C)C(Nc1ccc(C(F)(F)F)cc1)C(N)=O (configuration not stated)
181 | CCOC(=O)C1=C(C)NC(N=C(C)N(C)C)=C(C(=O)OCC)C1c1ccccc1Cl (configuration not stated)
136 to 138 | CC(=O)NCC1CN(c2ccc(N3CCC(C(C#N)CO)CC3)c(F)c2)C(=O)O1 (configuration not stated)
62 to 64 | CC(C)(O)c1ccc(CN)cc1
98 to 100 | COc1ccc(CCNC(=S)N2CCN(c3ncnc4cc(OC)c(OC)cc34)CC2)cc1OC
75 | Cc1nc2c(OCc3c(Cl)ccc(S(=O)(=O)N4CCC[C@H]4C(=O)NCCCN)c3Cl)cccn2c1Br
66 to 69 | CCOP(=O)(CNCc1ccnc(-c2cc(C(C)(C)C)c(O)c(C(C)(C)C)c2)c1)OCC
84 to 85 | Cc1ccc(C)c(C(C)Sc2cc(C)c3ccccc3n2)c1 (configuration not stated)
145 to 147 | Brc1ccc(N2CCN(CCCc3[nH]nc4c3CCCC4)CC2)cc1

melting point [°C] | Structure (SMILES)
93 to 94 | O=C(CC1CCCOC1=O)c1ccccc1 (configuration not stated)
228 to 229 | COc1ccc2c(c1)CC(C(N)=O)N2 (configuration not stated)
85 to 92 | COc1ccc(S(=O)(=O)N(CCC(=O)N2CCC(C(=O)O)CC2)C(CCc2ccccc2)C(=O)NO)cc1 (configuration not stated)
94 to 96 | CC(=O)OCCc1ccc(C2=NNC(=O)CC2)cc1
139 | CN(C(=O)OCc1ccccc1)C1CCN(CC2(C)Cn3cc([N+](=O)[O-])nc3O2)CC1 (configuration not stated)
132 to 133 | CCOc1cccc(CC(=O)O)c1OCCCc1cc(OC(C)C)nn1Cc1ccc(Cl)cc1Cl
52.7 to 53.3 | OCCn1ccc2cccnc21
72 to 74 | FC(F)(F)COc1ccc(OCc2ccccc2)cc1
65 to 69 | CCOP(=O)(OCC)c1nc(N2CCCC2)nc(N2CCCC2)n1
80.5 to 81.5 | CC1CC(=O)c2cc(OCc3ccccc3)cnc2C1 (configuration not stated)
233 to 235 | Cc1nc2c(N)nc3cccnc3c2n1CC1(O)CCN(C(=O)OC(C)(C)C)CC1
117 to 118 | CCc1nn2c(-c3ccc(Cl)cc3Cl)cnnc2c1C(CC)CC
98.5 | CSc1cc(-c2ccc(C(F)(F)F)cc2)nc(-c2cccc(C(F)(F)F)c2)c1
282 | O=C(COc1cccc(C(=O)O)c1)NCCNC(=O)COc1cccc(C(=O)O)c1
187 | CCCCCc1c(C(=O)O)nn(-c2ccc(Cl)cc2Cl)c1-c1ccc(Cl)cc1
153 to 154 | O=C(C#Cc1ccc(CCN2CCCC2)cc1)Nc1ccc(Cl)cc1
101 | CCOP(=O)(OCC)c1ccc(C(=O)O)cc1
84 to 86 | Cc1cccc(-c2nc(C(C)C)[nH]c2-c2cccc(-c3cnn(C)c3)c2)n1
66 to 75 | COC(=O)c1ccc(OCCNC(=O)C2Cc3ccccc3N2S(=O)(=O)c2ccc(-c3ccc(F)cc3C)cc2)cc1F (configuration not stated)
127 to 130 | Nc1n[nH]cc1-c1ccc(Cc2ccccc2)cc1
264 to 266 | O=C(O)c1ccc(Nc2c(C(=O)O)cc(Cl)cc2[N+](=O)[O-])cc1
148 to 150 | CN1CCn2nc(Nc3cc(-c4cccc(N5Cc6cc(N(C)C)ccc6C5=O)c4CO)cn(C)c3=O)cc2C1
239 to 240 | Nc1cc(C(=O)O)cc(S(N)(=O)=O)c1Oc1cccc(Cl)c1

melting point [°C] | Structure (SMILES)
227 to 229 | O=C1NC(Cc2ccc(OCc3ccccc3)cn2)C(=O)NC1Cc1ccc(Cl)cc1 (configuration not stated)
104 to 105 | CCCCCSC1=NC(c2cccc([N+](=O)[O-])c2)C(C(=O)OCC)=C(C)N1 (configuration not stated)
93 to 94 | Clc1ncc(Cl)c(NC2CCCCC2)n1
53 to 54 | O=C(C1(F)CC1Cc1ccc(Cl)cc1)C1(F)CC1Cc1ccc(Cl)cc1 (configuration not stated)
232 | CC(O)c1ccc2c(NCc3ccc(NC(=O)c4ccc(F)cc4)cc3)nc(N(C)C)nc2c1 (configuration not stated)
132 | CC(=C1SCCCS1)c1ccc(Oc2ccc(S(C)=O)cc2)cc1 (configuration not stated)
98 to 104 | Cc1cccc2c1c(C(=O)CC1CCCCCC1)cn2CCO
159 to 163 | NC(=NO)c1cc2c(cn1)[nH]c1ccccc12
44 to 50 | FC(F)(F)c1ccc2c(c1)SSSSS2
194 to 196 | COc1cc(C)nc(NC(=O)NS(=O)(=O)Cc2ccccc2-c2nnc(SC)o2)n1
79 to 80 | OC(c1cccnc1)c1cc(F)ccc1F (configuration not stated)
140 to 141 | Cc1c(NC(=O)c2ccc(OC[C@@H]3CCCO3)cc2)ccc2cc(CN3CCC(C)(O)CC3)n(C)c12
200 | Fc1ccc(NC(=S)NN(c2ccccc2)c2ccccc2)cc1
69 | CCCCCCCCCCCP(=O)(c1ccccc1)c1ccccc1
218 to 221 | c1ccc(N2CCN(c3ccccc3)C2Oc2ccc(C3N(c4ccccc4)CCN3c3ccccc3)cc2)cc1
73 to 84 | CCC(Nc1ncnc2c1ncn2C1OC(CO)C(O)C1O)c1ccccc1 (configuration not stated)
237 to 239 | Cc1nc2c(N)nc3ccccc3c2n1CCC(N)=O
60 to 75 | CN(C(=O)CCSC(c1ccccc1)(c1ccccc1)c1ccccc1)c1nnc(-c2cccnc2)s1
133 to 135 | COc1ccc(-c2nc(C(N)=O)oc2-c2ccc(OC)cc2)cc1
128 to 131 | CC(C(=O)O)c1ccc2c(c1)C(=O)c1cc(Cl)ccc1CS2 (configuration not stated)
98 to 99 | C=CCNC(=O)N1CC(c2ccc(C(C)(C)C)cc2)C1
> 300 | CCOC(=O)N1CCN(c2ccc3nc4[nH]c(=O)[nH]c4cc3c2)CC1
158 to 160 | CSc1nnc(-c2cc3c(Oc4ccc(Cl)cc4)cncc3s2)o1

Structure (SMILES) | melting point [°C]
O=C(NC1N=C(c2ccc(F)cc2)c2ccccc2NC1=O)OCc1ccccc1 (configuration not stated) | > 260
O=c1[nH]c2ccc(Cl)cc2c(=O)n1CCCCN1CC=C(c2ccccc2)CC1 | 214 to 222
ClC1=Nc2ccccc2Oc2ccccc21 | 53 to 55
CC(C)(C)NC(=O)c1nn(-c2ccc(C(C)(C)C)cc2)c2c1C1CCC2C1 (configuration not stated) | 148 to 150
C=CCC1(C(C)(C)C(=O)OCC)C(=O)NC(=O)NC1=O | 112 to 114
O=C(Nc1ccc2cccnc2c1)c1cc2cc(F)ccc2n1Cc1cccc(F)c1 | 222 to 223
CCOC(=O)c1ncc2[nH]c3cccc(OCc4ccccc4)c3c2c1COC | 130 to 131
CC1=C(N2CC2)C(=O)c2c([nH]c(CO)c2C)C1=O | 224 to 225
NC1=NCC(COc2cccc(Cl)c2)O1 (configuration not stated) | 128
O=C(NC(=O)c1cc(Cl)cc(Cl)c1)NC1CN2CCC1CC2 (configuration not stated) | 253 to 254
